# Assay results: patent publication US10172832B2, “Amide derivatives of N-urea substituted amino acids as formyl peptide receptor like-1 (FPRL-1) receptor modulators” (Allergan, Inc., priority 2011, dated 2019)
# pEC50: −log10 of the molar value.
# Target: T1, FPRL-1 (Homo sapiens, UniProt P25090)
# T1 construct: expressed in transfected cells
# T1 sequence (P25090 1-351): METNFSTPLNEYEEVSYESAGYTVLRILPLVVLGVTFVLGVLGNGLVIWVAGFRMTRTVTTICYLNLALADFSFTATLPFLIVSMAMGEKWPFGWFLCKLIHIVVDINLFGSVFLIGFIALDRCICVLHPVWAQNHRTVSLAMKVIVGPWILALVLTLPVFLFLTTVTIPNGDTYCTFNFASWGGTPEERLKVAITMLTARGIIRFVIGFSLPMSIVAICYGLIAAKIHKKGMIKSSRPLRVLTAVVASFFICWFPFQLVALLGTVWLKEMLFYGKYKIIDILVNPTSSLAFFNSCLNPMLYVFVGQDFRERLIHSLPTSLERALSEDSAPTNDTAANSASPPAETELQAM
# Assay: compound-induced calcium activity on FLIPR Tetra in CHO-Gα16 cells stably expressing FPRL1
# Assay type: cell-based
# Conditions: for FPRL-1 Ga16-CHO (Rel. eff.): relative efficacy; for pEC50: tested 0.61 to 10,000 nM, read-out: FPRL-1 Ga16-CHO EC50
# Protocol: CHO-Gα16 cells stably expressing FPRL1 were cultured in (F12, 10% FBS, 1% PSA, 400 μg/ml geneticin and 50 μg/ml hygromycin) and HEK-Gqi5 cells stable expressing FPR1 were cultured in (DMEM high glucose, 10% FBS, 1% PSA, 400 μg/ml geneticin and 50 μg/ml hygromycin). In general, the day before the experiment, 18,000 cells/well were plated in a 384-well clear bottom poly-d-lysine coated plate. The following day the screening compound-induced calcium activity was assayed on the FLIPR^Tetra. The drug plates were prepared in 384-well microplates using the EP3 and the MultiPROBE robotic liquid handling systems. Compounds were tested at concentrations ranging from 0.61 to 10,000 nM. Results are expressed as EC50 (nM) and efficacy values.
FPRL-1 Ga16-CHO (Rel. eff.),pEC50,Structure (SMILES)
(1.03),6.52,"CC(C)(C)OC(=O)CNC(=O)[C@H](Cc1c[nH]c2ccccc12)NC(=O)Nc1ccc(Br)cc1 (stereo in doubt) [Compound 90, tert-butyl {[2-{[(4-bromophenyl)carbamoyl]amino}-3-(1H-indol-3-yl)propanoyl]amino}acetate]"
(0.95),8.26,"CC[C@H](C)[C@H](NC(=O)Nc1ccc(Br)cc1F)C(=O)NCC(=O)O [Compound 3, {[(2S,3S)-2-{[(4-bromo-2-fluorophenyl)carbamoyl]amino}-3-methylpentanoyl]amino}acetic acid]"
(1.05),7.46,CCC[C@H](NC(=O)Nc1ccc(Br)cc1)C(=O)NCC(C)=O [(2S)-2-{[(4-bromophenyl)carbamoyl]amino}-N-(2-oxopropyl)pentanamide]
(1.05),7.96,"CC(C)C[C@H](NC(=O)Nc1ccc(Br)cc1)C(=O)N[C@@H](C)C(=O)O [Compound 43, (2S)-2-{[(2S)-2-{[(4-bromophenyl)carbamoyl]amino}-4-methylpentanoyl]amino}propanoic acid]"
(1.08),8.04,"CC(C)C[C@H](NC(=O)Nc1ccc(Br)cc1)C(=O)N[C@H](C(=O)O)c1ccccc1 [Compound 52, (2S)-{[(2S)-2-{[(4-bromophenyl)carbamoyl]amino}-4-methylpentanoyl]amino}(phenyl)ethanoic acid]"
(1.01),7.44,"CC[C@H](C)[C@H](NC(=O)Nc1ccc(Br)cc1F)C(=O)NCC(C)=O [Compound 13, (2S,3S)-2-{[(4-bromo-2-fluorophenyl)carbamoyl]amino}-3-methyl-N-(2-oxopropyl)pentanamide]"
(1.21),6.45,"CC(C)C[C@H](NC(=O)Nc1ccc([S+](C)[O-])cc1)C(=O)NCC(=O)O (stereo partly drawn) [Compound 77, {[(2S)-4-methyl-2-({[4-(methylsulfinyl)phenyl]carbamoyl}amino)pentanoyl]amino}acetic acid]"
(0.81),5.53,NC(=O)CC(NC(=O)Nc1ccc(Br)cc1)C(=O)NCC(=O)O (centres unmarked) [[(4-amino-2-{[(4-bromophenyl)carbamoyl]amino}-4-oxobutanoyl)amino]acetic acid]
–,8.52,"CC(C)C[C@H](NC(=O)Nc1ccc(Br)cc1)C(=O)N[C@H](C)CO [Compound 48, (2S)-2-{[(4-bromophenyl)carbamoyl]amino}-N-[(1R)-2-hydroxy-1-methylethyl]-4-methylpentanamide]"
(0.98),7.80,"O=C(Nc1ccc(Br)cc1F)N[C@@H](Cc1ccccc1)C(=O)NCCO [Compound 19, (2S)-2-{[(4-bromo-2-fluorophenyl)carbamoyl]amino}-N-(2-hydroxyethyl)-3-phenylpropanamide]"
–,8.68,"CC(C)C[C@H](NC(=O)Nc1ccc(Br)cc1)C(=O)NCC(C)(C)O [Compound 47, (2S)-2-{[(4-bromophenyl)carbamoyl]amino}-N-(2-hydroxy-2-methylpropyl)-4-methylpentanamide]"
(0.98),7.74,"O=C(O)CCNC(=O)[C@H](Cc1ccccc1)NC(=O)Nc1ccc(Br)cc1 [Compound 2, 3-{[(2S)-2-{[(4-bromophenyl)carbamoyl]amino}-3-phenylpropanoyl]amino}propanoic acid]"
(1.07),5.99,"CC(C)C[C@H](NC(=O)Nc1ccc(C(F)(F)F)cc1)C(=O)NC(C)(C)C(=O)OC(C)(C)C [Compound 79, tert-butyl 2-methyl-2-{[(2S)-4-methyl-2-({[4-(trifluoromethyl)phenyl]carbamoyl}amino)pentanoyl]amino}propanoate]"
(1.00),8.57,"CC[C@H](C)[C@H](NC(=O)Nc1ccc(Br)cc1)C(=O)NCC(=O)O [Compound 4, {[(2S,3S)-2-{[(4-bromophenyl)carbamoyl]amino}-3-methylpentanoyl]amino}acetic acid]"
